Where a SMILES comes first, the peptide text is derived from it. [ ]: non-standard residue; d: D form. The star is where a group is joined. NHCH2CH2OH = OCCN*; For = O=C*
What was measured:
[1] = H+/Na+ transport assay of bead-derived peptides (one-point); assay type: biochemical; set-up: key: relative activity; mean of two control wells = 1.00; details: bead-derived peptide solution, EYPC/EYPG LUVs;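 note: relative to parent gramicidin A activity set to 1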
Procedure: (§1) Each type of assay must be simplified and miniaturized to assess the activities of the library peptides in a 96-well format for the high-throughput screening.
H+/Na+ transport assay of bead-derived peptides.1,2,3 Trisodium 8-hydroxypyrene-1,3,6-trisulfonate
mini-extruder apparatus (Avanti Polar Lipids).
28.9 µmol) in CHCl3 (225 µL) and egg yolk phosphatidylglycerol (1.20 mg, 1.56 µmol) in CHCl3 (60.0 µL)
The thin film was hydrated and
1.0 mM pyranine) by sonication.
A suspension of the LUVs was immediately
used for the H+/Na+ transport assay.
The diluted solution of peptide
flat-bottom 96-well plate (655086, Greiner bio-one).
was vortexed at room temperature for 30 min.
(5/95, 3.0 µL) and the LUV suspension were mixed in each plate to determine 100% lysis. The untreated
LUV suspension was used to determine 0% lysis.
normalized against 100% lysis by Triton X-100 (Imax) and 0% lysis (I0) as following, where Ix is the
fluorescence intensity (Supplementary Equation 2).
I = 100 × (Ix – I0) / (Imax – I0) (2)
The mean value of the two control wells was set to 1.00. […]

[2] = test system: P388 mouse leukemia cells; details: 92 h
Excerpt: Each type of assay must be simplified and miniaturized to assess the activities of the library peptides in a 96-well format for the high-throughput screening. […]
Mammalian cytotoxicity assay of bead-derived peptides . P388 cells were obtained from Institute of
Development Aging and Cancer (Tohoku University). The cells were maintained with growth medium
[RPMI1640 with phenol red ( Fujifilm Wako Pure Chemical) supplemented with 10% heat -inactivated fetal
bovine serum, pe nicillin G (100 units/mL), and streptomycin (100 µg/mL)] under atmosphere of 5% CO 2 at
The collected cells were resuspended into
the growth medium at 2 × 10^4 cells/mL. The stock solutions of the peptide library were 250-fold diluted
with the growth medium. Aliquots of the medium (100 µL) containing peptides and the latter medium
containing P388 cells (100 µL) were mixed in a 96-well cell culture plate (TR5003, TrueLine). The final
concentration of P388 cells was 1 × 10^4 cells/mL. After incubation under atmosphere of 5% CO2 at 37 °C
for 92 h, the numbers of viable cells were determined by
2-(4-iodophenyl)-3-(4-nitrophenyl)-5-(2,4-disulfophenyl)-2H-tetrazolium, monosodium salt (WST-1) assay.
A solution of 1-methoxy-5-methylphenazinium methyl sulfate (1-methoxy PMS) and WST-1 in the growth
medium (1-methoxy PMS 0.70 mg/mL in Milli-Q/WST-1 3.6 mg/mL in pH 7.4 HEPES buffer = 1/9) was
added to each well of the plate (10.0 µL/well). The plate was incubated for 4 h under atmosphere of 5% CO2
at 37 °C. The absorbance of each well at 415 nm was measured using a Benchmark microplate reader
(Bio-Rad). The cytotoxicities were evaluated as cell viability (%). […]

[3] = test system: Streptococcus pyogenes SSI-9; assay: Antibacterial activity assay of bead-derived peptides (three concentrations); assay type: cell-based; set-up: key: +++: inhibition by the 640-fold diluted peptide solution; ++: inhibition by the 160-fold diluted solution; +: inhibition by the 40-fold diluted solution; -: no inhibition; details: S. pyogenes, bead-derived peptide solution, three concentrations
Procedure: as §1
Next, the peptides in groups A and B were subjected to the antibacterial assay and structural determination. Three peptide concentrations were applied to evaluate the growth inhibition of S. pyogenes and determine the antibacterial activity. […] Finally, the structures of the peptides were determined. […]
Antibacterial activity assay of bead-derived peptides. The stock solution of the peptide library was 4- and […]
16-fold diluted with DMSO. The non-diluted stock solution, 4-fold diluted solution, and 16-fold diluted […]
solution were transferred to the 96-well round-bottom plate (3367, Corning, 1.0 µL/well). To the solution of […]
peptide in each well was added a suspension of Streptococcus pyogenes SSI-9 strain in cation adjusted […]
Mueller Hinton Broth [40.0 µL, 2 × 10^5 colony forming units (CFU), 21 g/L Mueller Hinton Broth (Difco), 50 […]
mg/L Ca2+ (adjusted with CaCl2•2H2O), and 25 mg/L Mg2+ (adjusted with MgCl2•6H2O)] supplemented with […]
5% laked horse blood (Nippon Biotest Laboratories). The plate was incubated at 37 °C for 18 h, and the precipitation of the grown cells was examined. […]

CC(C)C[C@@H](NC(=O)[C@H](C)NC(=O)[C@H](NC(=O)[C@H](C)NC(=O)CNC(=O)[C@@H](NC=O)C(C)C)[C@H](C)O)C(=O)N[C@H](C(=O)N[C@H](CC(C)C)C(=O)N[C@@H](Cc1c[nH]c2ccccc12)C(=O)N[C@@H](C(=O)N[C@@H](Cc1c[nH]c2ccccc12)C(=O)N[C@H](CC(C)C)C(=O)N[C@@H](Cc1c[nH]c2ccccc12)C(=O)N[C@@H](C(=O)N[C@@H](Cc1c[nH]c2ccccc12)C(=O)NCCO)C(C)C)[C@H](C)O)C(C)C [compound 4545] (For-VGA[dT]A[dL]V[dL]W[dT]W[dL]W[dV]W-NHCH2CH2OH)
H+/Na+ transport activity normalized against the value of 1 (1.00) [1]: 1.18 | cell viability/% [2]: 100.0% | antibacterial activity [3]: -

CC(C)C[C@@H](NC(=O)[C@H](C)NC(=O)CNC(=O)[C@@H](NC=O)C(C)C)C(=O)N[C@@H](C)C(=O)N[C@@H](C(=O)N[C@H](C(=O)N[C@@H](C(=O)N[C@@H](Cc1c[nH]c2ccccc12)C(=O)N[C@@H](C(=O)N[C@@H](Cc1c[nH]c2ccccc12)C(=O)N[C@H](CC(C)C)C(=O)N[C@@H](Cc1c[nH]c2ccccc12)C(=O)N[C@H](CC(C)C)C(=O)N[C@@H](Cc1c[nH]c2ccccc12)C(=O)NCCO)C(C)C)C(C)C)C(C)C)C(C)C [compound 3124] (For-VGA[dL]A[dV]V[dV]W[dV]W[dL]W[dL]W-NHCH2CH2OH)
H+/Na+ transport activity normalized against the value of 1 (1.00) [1]: 1.26 | cell viability/% [2]: 0.0% | antibacterial activity [3]: ++

CC(C)C[C@@H](NC(=O)[C@H](C)NC(=O)[C@H](NC(=O)[C@H](C)NC(=O)CNC(=O)[C@@H](NC=O)C(C)C)C(C)C)C(=O)N[C@H](C(=O)N[C@H](CC(C)C)C(=O)N[C@@H](Cc1c[nH]c2ccccc12)C(=O)N[C@H](CC(C)C)C(=O)N[C@@H](Cc1c[nH]c2ccccc12)C(=O)N[C@H](CC(C)C)C(=O)N[C@@H](Cc1c[nH]c2ccccc12)C(=O)N[C@H](CC(C)C)C(=O)N[C@@H](Cc1c[nH]c2ccccc12)C(=O)NCCO)C(C)C [compound 12877] (For-VGA[dV]A[dL]V[dL]W[dL]W[dL]W[dL]W-NHCH2CH2OH)
H+/Na+ transport activity normalized against the value of 1 (1.00) [1]: 1.04 | cell viability/% [2]: 4.7% | antibacterial activity [3]: -

CC(C)C[C@@H](NC(=O)[C@H](Cc1c[nH]c2ccccc12)NC(=O)[C@H](NC(=O)[C@@H](NC(=O)[C@H](NC(=O)[C@H](C)NC(=O)[C@H](NC(=O)[C@H](C)NC(=O)CNC(=O)[C@@H](NC=O)C(C)C)C(C)C)C(C)C)C(C)C)C(C)C)C(=O)N[C@@H](Cc1c[nH]c2ccccc12)C(=O)N[C@@H](C(=O)N[C@@H](Cc1c[nH]c2ccccc12)C(=O)N[C@@H](C(=O)N[C@@H](Cc1c[nH]c2ccccc12)C(=O)NCCO)C(C)C)C(C)C [compound 5570] (For-VGA[dV]A[dV]V[dV]W[dL]W[dV]W[dV]W-NHCH2CH2OH)
H+/Na+ transport activity normalized against the value of 1 (1.00) [1]: 1.26 | cell viability/% [2]: 96.8% | antibacterial activity [3]: ++

CC(C)C[C@@H](NC(=O)[C@H](C)NC(=O)CNC(=O)[C@@H](NC=O)C(C)C)C(=O)N[C@@H](C)C(=O)N[C@@H](C(=O)N[C@H](C(=O)N[C@@H](C(=O)N[C@@H](Cc1c[nH]c2ccccc12)C(=O)N[C@@H](C(=O)N[C@@H](Cc1c[nH]c2ccccc12)C(=O)N[C@H](CC(C)C)C(=O)N[C@@H](Cc1c[nH]c2ccccc12)C(=O)N[C@@H](C(=O)N[C@@H](Cc1c[nH]c2ccccc12)C(=O)NCCO)C(C)C)C(C)C)C(C)C)C(C)C)C(C)C [compound 11438] (For-VGA[dL]A[dV]V[dV]W[dV]W[dL]W[dV]W-NHCH2CH2OH)
H+/Na+ transport activity normalized against the value of 1 (1.00) [1]: 1.18 | cell viability/% [2]: 100.0% | antibacterial activity [3]: ++

CC(C)C[C@@H](NC(=O)[C@H](C)NC(=O)[C@H](NC(=O)[C@H](C)NC(=O)CNC(=O)[C@@H](NC=O)C(C)C)C(C)C)C(=O)N[C@H](C(=O)N[C@@H](C(=O)N[C@@H](Cc1c[nH]c2ccccc12)C(=O)N[C@H](CC(C)C)C(=O)N[C@@H](Cc1c[nH]c2ccccc12)C(=O)N[C@@H](C(=O)N[C@@H](Cc1c[nH]c2ccccc12)C(=O)N[C@@H](C(=O)N[C@@H](Cc1c[nH]c2ccccc12)C(=O)NCCO)C(C)C)C(C)C)[C@H](C)O)C(C)C [compound 3375] (For-VGA[dV]A[dL]V[dT]W[dL]W[dV]W[dV]W-NHCH2CH2OH)
H+/Na+ transport activity normalized against the value of 1 (1.00) [1]: 1.29 | cell viability/% [2]: 100.0% | antibacterial activity [3]: -

CC(C)C[C@@H](NC(=O)[C@H](C)NC(=O)[C@H](NC(=O)[C@H](C)NC(=O)CNC(=O)[C@@H](NC=O)C(C)C)C(C)C)C(=O)N[C@H](C(=O)N[C@@H](C(=O)N[C@@H](Cc1c[nH]c2ccccc12)C(=O)N[C@H](CC(C)C)C(=O)N[C@@H](Cc1c[nH]c2ccccc12)C(=O)N[C@H](CC(C)C)C(=O)N[C@@H](Cc1c[nH]c2ccccc12)C(=O)N[C@@H](C(=O)N[C@@H](Cc1c[nH]c2ccccc12)C(=O)NCCO)C(C)C)C(C)C)C(C)C [compound 5872] (For-VGA[dV]A[dL]V[dV]W[dL]W[dL]W[dV]W-NHCH2CH2OH)
H+/Na+ transport activity normalized against the value of 1 (1.00) [1]: 1.02 | cell viability/% [2]: 9.9% | antibacterial activity [3]: +

CC(C)C[C@@H](NC(=O)[C@H](C)NC(=O)CNC(=O)[C@@H](NC=O)C(C)C)C(=O)N[C@@H](C)C(=O)N[C@@H](C(=O)N[C@H](C(=O)N[C@@H](C(=O)N[C@@H](Cc1c[nH]c2ccccc12)C(=O)N[C@@H](C(=O)N[C@@H](Cc1c[nH]c2ccccc12)C(=O)N[C@H](CC(C)C)C(=O)N[C@@H](Cc1c[nH]c2ccccc12)C(=O)N[C@@H](C(=O)N[C@@H](Cc1c[nH]c2ccccc12)C(=O)NCCO)C(C)C)C(C)C)C(C)C)C(C)C)C(C)C [compound 6861] (For-VGA[dL]A[dV]V[dV]W[dV]W[dL]W[dV]W-NHCH2CH2OH)
H+/Na+ transport activity normalized against the value of 1 (1.00) [1]: 1.18 | cell viability/% [2]: 100.0% | antibacterial activity [3]: +

CC(C)C[C@@H](NC(=O)[C@H](C)NC(=O)[C@H](NC(=O)[C@H](C)NC(=O)CNC(=O)[C@@H](NC=O)C(C)C)C(C)C)C(=O)N[C@H](C(=O)N[C@@H](C(=O)N[C@@H](Cc1c[nH]c2ccccc12)C(=O)N[C@H](CC(C)C)C(=O)N[C@@H](Cc1c[nH]c2ccccc12)C(=O)N[C@@H](C(=O)N[C@@H](Cc1c[nH]c2ccccc12)C(=O)N[C@@H](C(=O)N[C@@H](Cc1c[nH]c2ccccc12)C(=O)NCCO)C(C)C)C(C)C)C(C)C)C(C)C [compound 6888] (For-VGA[dV]A[dL]V[dV]W[dL]W[dV]W[dV]W-NHCH2CH2OH)
H+/Na+ transport activity normalized against the value of 1 (1.00) [1]: 1.23 | cell viability/% [2]: 78.6% | antibacterial activity [3]: +

CNC(=O)C[C@@H](NC(=O)[C@@H](NC(=O)[C@H](NC(=O)[C@H](C)NC(=O)[C@@H](CC(C)C)NC(=O)[C@H](C)NC(=O)CNC(=O)[C@@H](NC=O)C(C)C)C(C)C)C(C)C)C(=O)N[C@@H](Cc1c[nH]c2ccccc12)C(=O)N[C@@H](C(=O)N[C@@H](Cc1c[nH]c2ccccc12)C(=O)N[C@H](CC(C)C)C(=O)N[C@@H](Cc1c[nH]c2ccccc12)C(=O)N[C@@H](C(=O)N[C@@H](Cc1c[nH]c2ccccc12)C(=O)NCCO)C(C)C)C(C)C [compound 5778] (For-VGA[dL]A[dV]V[dD](NHMe)W[dV]W[dL]W[dV]W-NHCH2CH2OH)
H+/Na+ transport activity normalized against the value of 1 (1.00) [1]: 1.19 | cell viability/% [2]: 77.8% | antibacterial activity [3]: -

Reference: PMC7531004, “Discovery of gramicidin A analogues with altered activities by multidimensional screening of a one-bead-one-compound library” (Nature Communications, 2020)
